Test results reported in patent US9708305B2, “Substituted 1,2,3,4-tetrahydroisoquinoline derivatives for the treatment of hormone-dependent diseases” (UNIVERSITÉ LAVAL, priority 2013, dated 2017).

Key:
[1] = target: T1, steroid sulfatase (STS) (Homo sapiens, UniProt P08842); assay: Steroid sulfatase (STS) inhibition, [3H]-E1S to [3H]-E1, homogenate of transfected HEK-293 cells; type: biochemical; settings: transformation of E1S into E1 in homogenate of HEK-293 cells transfected with STS; read-out: Steroid Sulfatase Inhibition IC50
T1 construct: expressed in transfected cells; host or cells: HEK-293 cells stably transfected with STS (G418 selection), obtained from Dr. Van Luu-The; used as freeze-thaw homogenate
T1 sequence (P08842 22-583): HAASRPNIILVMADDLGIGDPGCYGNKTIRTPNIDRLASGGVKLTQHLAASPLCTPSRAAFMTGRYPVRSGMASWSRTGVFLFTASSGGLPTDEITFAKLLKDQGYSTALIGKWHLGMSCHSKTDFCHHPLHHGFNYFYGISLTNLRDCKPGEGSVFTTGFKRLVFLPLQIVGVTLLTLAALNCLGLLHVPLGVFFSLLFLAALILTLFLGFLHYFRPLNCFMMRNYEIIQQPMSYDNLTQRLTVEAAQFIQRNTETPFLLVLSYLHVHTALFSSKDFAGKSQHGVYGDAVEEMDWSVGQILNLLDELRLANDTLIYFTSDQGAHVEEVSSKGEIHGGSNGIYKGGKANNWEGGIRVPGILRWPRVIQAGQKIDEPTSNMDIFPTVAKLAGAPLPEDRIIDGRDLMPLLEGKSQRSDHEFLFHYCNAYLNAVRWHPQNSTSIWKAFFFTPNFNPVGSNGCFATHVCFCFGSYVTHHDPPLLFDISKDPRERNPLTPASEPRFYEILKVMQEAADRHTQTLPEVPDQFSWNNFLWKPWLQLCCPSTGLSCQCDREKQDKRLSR

[2] = system: T-47D cells; assay: T-47D cell proliferation in presence of E2 (antiestrogenicity); type: cell-based; settings: Homo sapiens, T47D; read-out: Breast cancer cells T-47D (ER+) Antagonist activity (%)
Description: CellTitter 96® Aqueous One Solution Cell Proliferation Assay was used as an indirect colorimetric measurement of cell proliferation according to the manufacturer's instructions. Briefly, after the treatments, 20 μL of MTS solution was added to each well (100 μL) of the plates and incubated at 37° C. for 2 h (Saos-2) or 4 h (T-47D). The absorbance at 490 nm was then measured with a Thermo max microplate reader (Molecular Devices, Sunnyvale, Calif.). The control (culture media+DMSO) is set to 100% of cell proliferation.
The cells were plated in 96-well plates at a density of 3 000 cells/well and allowed to attach for 48 h. After this pre-incubation, the inhibitors and the reference compounds diluted in fresh culture media were added to the wells and replaced every 2 days for 7 days of treatment.

[3] = system: alkaline phosphatase (ALP) activity in Saos-2 cells; assay: Alkaline phosphatase (ALP) activity in Saos-2 cells; type: cell-based
Description: ALP is an enzyme that releases inorganic phosphate from different intracellular substrates such as pyrophosphate and pyridoxal 5′-phosphate.^63 The inorganic phosphate is used in the formation of hydroxyapatite crystals which are then inserted in the extracellular protein scaffold to form the solid part of bone tissue.
Saos-2 cells were treated similarly as reported in the cell proliferation assay. The cells were seeded at a density of 2 000 cells/well and were treated with the inhibitors and the reference compounds for 3 days. The alkaline phosphatase (ALP) activity was measured using Sensolyte® pNPP Alkaline Phosphatase Assay Kit *Colorimetric* (AnaSpec, Fremont, Calif.) following the manufacturer's protocol. Briefly, after the 3 days of treatment, the cells were washed twice with washing buffer (provided with the kit) and lysed with 0.2% Triton X-100. The cell lysates were centrifuged and the supernatants were used to determine the ALP activity. The supernatants were deposed in a 96-well plate and incubated 30 min with a p-nitrophenyl phosphate solution (provided with the kit). The absorbance at 405 nm was measured with a Thermo max microplate reader (Molecular Devices, Sunnyvale, Calif.). The control (culture media+DMSO) is set to 100% of alkaline phosphatase activity.

[4] = system: MCF-7 (ER+) cells; assay: Proliferative (estrogenic) activity on MCF-7 (ER+) cells; type: cell-based; settings: 0.1 nM; 7 days; control 100%
Description: The next step was to determine the presence or absence of estrogenic activity. To do so, cell proliferative assays were carried out on MCF-7 cells. […] Phenols of the corresponding sulfamate library 3-EO and 4-EO are referred to as library 3′-EO and library 4′-EO, respectively.
This cell assay was carried out according to a procedure previously described to determine the estrogenic activity of enzyme inhibitors on the growth of estrogen-sensitive MCF-7 cells.^77 All chemicals tested were first dissolved in DMSO and subsequent dilutions were done in the proper cell culture media. The final concentration of DMSO in the culture medium was 0.1% or less. 3-(4,5-dimethylthiazol-2-yl)-5-(3-carboxymethoxyphenyl)-2-(4-sulfophenyl)-2-H-tetrazolium (MTS) was used as an indirect colorimetric measurement of cell proliferation according to the manufacturer's instructions (Promega, Madison, Wis.). At the end of the treatments, 20 μL of MTS solution was added to each well (100 μL) and the MCF-7 cells were incubated 4 h at 37° C. The absorbance at 490 nm was then measured with a Thermo max microplate reader (Molecular Devices, Sunnyvale, Calif.). The control (culture media+DMSO) is set to 100% of cell proliferation.

IC50 [1]: > 1 µM
Structure (SMILES): C[C@]12CC[C@@H]3c4ccc(O)cc4CC[C@H]3[C@@H]1CC[C@@H]2O [E2, 17β-estradiol, reference compound]
inhibition at 1 µM [2]: 0%
Bone cells Saos-2 (ER+) SERM effect Alkaline phosphatase activity (%) ([3]; 0.1 nM): 100%
stimulation of ALP activity in presence of ICI-164,384 or MPP + PHTPP ([3]; 0.1 nM compound, antagonists 1 μM, 3 days): completely blocked the stimulation
proliferation of MCF-7 (ER+) cells [4]: 176%
